Assay results taken from patent US9392792B1, “Topical combination of fipronil, permethrin and pyriproxyfen” (priority 2014, dated 2016).

Experiment: Crystallization test on glass slides at ambient temperature
Type: physicochemical
Details: comparison of compositions R1 and C2
Procedure: Number of glass slides per composition: 5 Protocol: • place the glass slides on a dark-coloured support; • deposit approximately 300 μl of the test composition on each glass slide, while spreading it on the central part of the glass slide (so as to avoid overspill); • leave the glass slide for 24 h in an environment at ambient temperature (approximately 20° C.). The following observations will be carried out: • the visual appearance (to the naked eye) of the compositions is observed after deposition thereof on a glass slide and reported in the observation table; • the visual appearance (to the naked eye) of the compositions is observed after 24 h at ambient temperature and is reported in the observation table while pointing out the possible presence and, where appropriate, the number of crystals present on the whole of the plate; • next, the plates are observed under polarized light and any crystals present are counted on the whole of the plate; an estimation of the size of the crystals is also carried out; • finally, the presence and the count of the crystals possibly present on each of the plates is reported in the observation table. […]

CC(COc1ccc(Oc2ccccc2)cc1)Oc1ccccn1 (stereo not shown) [pyriproxyfen, Pyriproxyfen]
effect of pyriproxyfen on crystallization of fipronil in the presence of permethrin at high concentration: substantially reduces the crystallization
